From patent US8012963B2, “3,4-dihydro-2H-benzo[1,4]oxazine and thiazine derivatives as CETP inhibitors” (Janssen Pharmaceutica N.V., priority 2006, dated 2011)

Target: T1, CETP (Homo sapiens, UniProt P11597)
T1 construct: from tissue; host or cells: human plasma from normal volunteers
T1 sequence (P11597 18-493): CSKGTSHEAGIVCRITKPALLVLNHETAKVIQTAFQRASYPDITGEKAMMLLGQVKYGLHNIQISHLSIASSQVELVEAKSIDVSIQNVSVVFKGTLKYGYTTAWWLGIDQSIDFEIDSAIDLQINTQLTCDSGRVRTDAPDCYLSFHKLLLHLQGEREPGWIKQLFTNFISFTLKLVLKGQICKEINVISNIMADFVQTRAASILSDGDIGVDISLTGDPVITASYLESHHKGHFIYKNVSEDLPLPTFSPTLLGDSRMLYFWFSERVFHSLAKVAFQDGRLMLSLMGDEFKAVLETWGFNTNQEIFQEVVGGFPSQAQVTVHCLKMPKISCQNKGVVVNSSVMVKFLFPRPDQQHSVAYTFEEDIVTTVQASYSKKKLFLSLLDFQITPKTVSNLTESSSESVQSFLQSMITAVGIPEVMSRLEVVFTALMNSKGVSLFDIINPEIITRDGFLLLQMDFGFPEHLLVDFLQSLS
Assay: CETP in vitro assay ([3H]CE-HDL transfer, Amersham kit TRKQ7005; modified protocol in human plasma)
Format: biochemical
Settings: 1 μM compound; multiple values = multiple measurements
Procedure: The CETP inhibitory activity of the compounds was determined using a commercially available kit from Amersham Biosciences (Catalog #TRKQ7005).
For the measurement of inhibitory activity in human plasma, a modified protocol (Connolly, D. T. et al., Biochemistry, 39 13870-13879, 2000) was used. Briefly, 80 μl of human plasma (obtained from normal volunteers), approximately 25 μg/ml (200) of [^3H]CE-HDL (Amersham Biosciences from kit TRKQ7005) and 1 μl of compound dissolved in DMSO was incubated for at least 4 hrs at 37° C. and non-specific transfer was determined by incubating a corresponding plate at 4° C. (blank). After the incubation period, 100 of a solution of 1% Dextralip 50/0.5M MgCl2, pH 7.4 was added, vortexed and incubated at room temperature for 10 min. The plate was then centrifuged for 30 min at 10° C. at 3000 rpm in a Sorvall RT6000B centrifuge. Fifty microliters of the supernatant was transferred to a Picoplate (Packard) containing 100 μl of Microscint 40 (Perkin Elmer) and mixed for 30 min using a plate mixer. The radioactivity was counted using a TopCount (Perkin Elmer) and the % control was determined in the samples using the following formula: % transfer relative to vehicle controls (% control)=[cpm blank-cpm test]/cpm blank/cpm control]×100. IC50s were calculated from plots of the % control versus compound concentration.
A variety of example compounds have been made and tested, with a range of in vitro results. Below, in Table 2, are representative compounds and the corresponding data; in some cases, where multiple IC50's are shown, multiple measurements were taken. Naturally, different compounds in Formula (I), (Ia), (Ib) and (Ic) may have not activities identical to any one compound below.

inhibition at 1 µM	SMILES
29%	OCCN1c2cccc(-c3cccc(OC(F)(F)F)c3)c2OCC1c1cccc(OC(F)(F)C(F)F)c1 (centres unmarked) [Compound 23, 2-[3-[3-(1,1,2,2-Tetrafluoro-ethoxy)-phenyl]-8-(3-trifluoromethoxy-phenyl)-2,3-dihydro-benzo[1,4]oxazin-4-yl]-ethanol]
25%	COCCN1c2cccc(-c3cccc(OC(F)(F)F)c3)c2OCC1c1cccc(OC(F)(F)C(F)F)c1 (centres unmarked) [Compound 24, 4-(2-Methoxy-ethyl)-3-[3-(1,1,2,2-tetrafluoro-ethoxy)-phenyl]-8-(3-trifluoromethoxy-phenyl)-3,4-dihydro-2H-benzo[1,4]oxazine]
10%	OCCCN1c2cccc(-c3cccc(OC(F)(F)F)c3)c2OCC1c1cccc(OC(F)(F)C(F)F)c1 (centres unmarked) [Compound 26, 3-[3-[3-(1,1,2,2-Tetrafluoro-ethoxy)-phenyl]-8-(3-trifluoromethoxy-phenyl)-2,3-dihydro-benzo[1,4]oxazin-4-yl]-propan-1-ol]
29%	COCCCN1c2cccc(-c3cccc(OC(F)(F)F)c3)c2OCC1c1cccc(OC(F)(F)C(F)F)c1 (centres unmarked) [Compound 27, 4-(3-Methoxy-propyl)-3-[3-(1,1,2,2-tetrafluoro-ethoxy)-phenyl]-8-(3-trifluoromethoxy-phenyl)-3,4-dihydro-2H-benzo[1,4]oxazine]
9%	CN(C)CCN1c2cccc(-c3cccc(OC(F)(F)F)c3)c2OCC1c1cccc(OC(F)(F)C(F)F)c1 (centres unmarked) [Compound 28, Dimethyl-{2-[3-[3-(1,1,2,2-tetrafluoro-ethoxy)-phenyl]-8-(3-trifluoromethoxy-phenyl)-2,3-dihydro-benzo[1,4]oxazin-4-yl]-ethyl}-amine]

The next lines start with the compound.

SMILES	inhibition at 1 µM
CCOC(=O)N1c2cccc(-c3cccc(OC(F)(F)F)c3)c2OCC1c1cccc(OC(F)(F)C(F)F)c1 (centres unmarked) [Compound 21, 3-[3-(1,1,2,2-Tetrafluoro-ethoxy)-phenyl]-8-(3-trifluoromethoxy-phenyl)-2,3-dihydro-benzo[1,4]oxazine-4-carboxylic acid ethyl ester]	2%
CC(C)(C)[Si](C)(C)OCCN1c2cccc(-c3cccc(OC(F)(F)F)c3)c2OCC1c1cccc(OC(F)(F)C(F)F)c1 (centres unmarked) [Compound 22, 4-[2-(tert-Butyl-dimethyl-silanyloxy)-ethyl]-3-[3-(1,1,2,2-tetrafluoro-ethoxy)-phenyl]-8-(3-trifluoromethoxy-phenyl)-3,4-dihydro-2H-benzo[1,4]oxazine]	13%
CC(C)(C)[Si](C)(C)OCCCN1c2cccc(-c3cccc(OC(F)(F)F)c3)c2OCC1c1cccc(OC(F)(F)C(F)F)c1 (centres unmarked) [Compound 25, 4-[3-(tert-Butyl-dimethyl-silanyloxy)-propyl]-3-[3-(1,1,2,2-tetrafluoro-ethoxy)-phenyl]-8-(3-trifluoromethoxy-phenyl)-3,4-dihydro-2H-benzo[1,4]oxazine]	13%
FC(F)C(F)(F)Oc1cccc(C2COc3c(-c4cccc(OC(F)(F)F)c4)cccc3N2CCN2CCOCC2)c1 (centres unmarked) [Compound 29, 4-(2-Morpholin-4-yl-ethyl)-3-[3-(1,1,2,2-tetrafluoro-ethoxy)-phenyl]-8-(3-trifluoromethoxy-phenyl)-3,4-dihydro-2H-benzo[1,4]oxazine]	0%
FC(F)C(F)(F)Oc1cccc(C2COc3c(-c4cccc(OC(F)(F)F)c4)cccc3N2CCN2CCNCC2)c1 (centres unmarked) [Compound 30, 4-(2-piperazin-1-yl-ethyl)-3-[3-(1,1,2,2-tetrafluoro-ethoxy)-phenyl]-8-(3-trifluoromethoxy-phenyl)-3,4-dihydro-2H-benzo[1,4]oxazine]	0%
CN1CCN(CCN2c3cccc(-c4cccc(OC(F)(F)F)c4)c3OCC2c2cccc(OC(F)(F)C(F)F)c2)CC1 (centres unmarked) [Compound 31, 4-[2-(4-Methyl-piperazin-1-yl)-ethyl]-3-[3-(1,1,2,2-tetrafluoro-ethoxy)-phenyl]-8-(3-trifluoromethoxy-phenyl)-3,4-dihydro-2H-benzo[1,4]oxazine]	17%
